We go through four molecules from patent US12644045B2, “Fluorescent compounds and application thereof” (The Hong Kong University of Science and Technology, priority 2020, dated 2026).

Data set [1] can be described thus: Photophysical properties (PL emission, quantum yield, AIE). The class given is physicochemical. The conditions noted are these: for aggregation induced emission (AIE): THF/water mixtures with increasing water fraction. How it is done:
FIG. 16A Normalized absorption and PL spectra of TBSM in THF solution (c=10^−5 M) and FIG. 16B Normalized absorption and PL spectra of TBSM in solid state. λex=460 nm.
FIG. 17A PL spectra of TBSM in water/THF mixtures with different water fractions (fw); FIG. 17B Plots of relative PL intensity (αAIE=I/I0, I0=PL intensity in pure THF at 672 nm) vs fw. c=10 μM, λex=460 nm. Insert: the fluorescence pictures of the mixture with fw=50% and 95%.
FIG. 23A Absorption spectra of TBSMCN in THF (c=10^−5 mol/L) and as film. FIG. 23B PL spectra of TBSMCN in THF (c=10^−5 mol/L) and as film, λex=530 nm.
FIG. 24A PL spectra of TBSMCN in H2O/THF mixtures with different water fractions (fw). Concentration: 10^−5 M; λex=530 nm. FIG. 24B Plots of relative emission intensity (I/I0) versus the composition of the mixture, where I0=PL intensity in pure THF at λem=810 nm.
UV spectrum FIG. 27A and PL spectrum FIG. 27B of TBSMPy in film state. λex=560 nm.
UV spectrum FIG. 28A and PL spectrum FIG. 28B of TBSMDPy in film state. λex=580 nm.
The photophysical properties of TBSM were first examined. […] TBSM gave a much brighter red emission in toluene solution with an emission wavelength at 605 nm and a QY of 67.9%. While in THF solution, the emission wavelength red-shifted to 669 nm with a QY of 4.1%.
We then investigated the luminescence behavior of TBSM in the mixture of THF and water to see whether it is AIE-active. When adding water into the THF solution, the photoluminescence (PL) intensity decreased with the water fraction (fw) in a range of 0-50%. In this case, the TICT effect dominated the photophysical process and reduced the emission intensity. When the fw exceeded 50%, the TBSM molecule began to aggregate and made the local microenvironment less polar. Therefore, the conformation rigidification became dominated and reversed the PL intensity from weak to strong.
To gain an insight to the details of the photophyscial properties of TBSM, we analyzed its crystal structure. TBSM molecules also show bright emission in the solid state since the locked nonplanar conformation can avoid the strong intermolecular π-π interactions. Indeed, no strong intermolecular π-π stacking has been observed in the crystal packing of TBSM. However, multiple intermolecular non-covalent interactions such as S . . . π, C≡N . . . π, C—H . . . N, C—H . . . S, and intermolecular hydrogen bonding interactions were observed which helps lock the solid-state molecular motion.
The photophysical properties of TBSMCN were investigated. […] In the film, the ICT peak further red shifted to 580 nm. […] TBSMCN was also AIE-active, showing increased PL emission intensity in the mixture of THF and water as the water fraction increased (FIG. 24A and FIG. 24B).
The photophysical properties of TBSMPy and TBSMDPy were studied. In the film state, they had absorption peaks around 400 nm and 580 nm. The emission peaks were at 750 nm with high QY of 16.3% and 25.0% for TBSMPy and TBSMDPy, respectively (FIGS. 27 and 28).

In data set [2] the test system is lipid droplets (LDs) in Hela cells. Briefly: Co-localization with BODIPY 493/503 in live Hela cells (confocal imaging). The class given is cell-based. The conditions noted are these: 2 μM TBSM 1 h, co-stained with BODIPY 493/503. How it is done: FIG. 19 Confocal fluorescent images of live HeLa cell stained with 2 μM TBSM (1 h) and 1 μg/mL BODIPY (1 h). TBSM: λex=488 nm, λem=550-650 nm; BODIPY: λex=488 nm, λem=490-535 nm. Scale bar=20 μm. The number on the figure is colocalization coefficient.
To confirm the specificity of the TBSM for LDs imaging, the co-localization experiments were then carried out by incubating Hela cells with TBSM and BODIPY 493/503, a commercial dye for LDs.

The next data set deals with A549 and Hela cells. Briefly: Live cell staining of A549 and Hela cells. The conditions noted are these: 2 μM, 1 h. The class given is cell-based.
Data set [3] concerns LDs of liver tissues of mice. Briefly: Ex vivo co-staining with BODIPY in high-fat feeding mice liver tissue. The conditions noted are these: TBSM 2 μM 1 h, BODIPY 2 μM 1 h. How it is done:
FIG. 20 Co-stained ex vivo confocal one-photon (λex=488 nm) images TBSM (2 μM, 1 h) and BODIPY (2 μM, 1 h) in high-fat feeding mice liver tissue. TBSM: λex=488 nm, λem=550-650 nm; BODIPY: μex=488 nm, λem=490-535 nm. Scale bar: 10 μm. The number on the picture is colocalization coefficient.

Data set [4] concerns LDs in the yolk sac of zebrafish embryos. Briefly: In vivo zebrafish embryo imaging. Conditions: 3-day-old zebrafish embryos, stained for 30 min. As to the method: FIG. 22 In vivo zebrafish embryo imaging stained with TBSM (1 μM, […]), λex=488 nm, λem=550-650 nm. The right is the enlarged part of white frame in the left.
Yolk sac as a neutral lipid and polar phospholipids storage organ provides energy for the upgrowth of zebrafish. Intense red fluorescence signals originating from the yolk sac in 3-day-old zebrafish embryos were observed after stained with TBSM for 30 min (FIG. 22).

In the case of `N#CC(C#N)=C1Sc2c(c(-c3ccc(N(c4ccccc4)c4ccccc4)cc3)c3nsnc3c2C#N)S1` [TBSMCN], in data set [1], the “aggregation induced emission (AIE)” value was “AIE-active”. The QY entry in data set [1] (film state) was “about 10%”.
In data set [1] (film state), `N#CC(C#N)=C1Sc2c(c(-c3ccc(N(c4ccccc4)c4ccccc4)cc3)c3nsnc3c2C#Cc2ccncc2)S1` [TBSMPy] displayed a QY of 16.3% and an emission peak of 750 nm.
For `N#CC(C#N)=C1Sc2c(c(-c3ccc(N(c4ccccc4)c4ccccc4)cc3)c3nsnc3c2C#Cc2cc(C#Cc3cccnc3)cc(C#Cc3cccnc3)c2)S1` [TBSMDPy] the same measures were 25.0% and 750 nm.
For the molecule `N#CC(C#N)=C1Sc2c(F)c(-c3ccc(N(c4ccccc4)c4ccccc4)cc3)c3nsnc3c2S1` [TBSM], the figures for the co-localization coefficient in data set [2] and in data set [3] were 0.91 and 0.97, respectively. For the same molecule, the “permeability for living cells” value in the data set with A549 and Hela cells is reported as “fast permeability”. Also, the “specificity toward LDs in vivo” value in data set [4] is reported as “highly specific toward LDs”. Further, the QY is recorded as 4.1% in data set [1] (THF solution) and 67.9% in data set [1] (toluene solution). The results for the emission wavelength in data set [1] (THF solution), in data set [1] (solid) and in data set [1] (toluene solution) were 669 nm, 670 nm and 605 nm, respectively. In data set [1], the “aggregation induced emission (AIE)” value is on record as “exhibits typical AIE property”. For the same molecule, the quantum yield in data set [1] (solid) amounted to 13%.
